Experimental data: patent US20240299361A1, “VETERINARY TRANSDERMAL GEL COMPRISING ONDANSETRON, AND RELATED METHODS” (Verté Therapeutics, LLC, priority 2023, published 2024)
Counter-ions that a name gives are not always drawn.

Test: Visual solubility screen for Ondansetron HCl in solvents/excipients
Format: physicochemical
Method: The purpose of this study was to evaluate the solubility of Ondansetron HCl in an array of solvents/excipients to develop a stable topical formulation for transdermal application in cats and dogs. In this screen, evaluation of solubility was determined by visual examination only.
The following procedure was used to determine solubility of the API (Ondansetron HCl): • a. Label 20 mL USP Type I scintillation vials appropriately for each solvent/solvent blend that will be tested. Although API is light sensitive, clear glass vials will be used, as the study is a visual assessment only. • b. Place a stir bar in each vial. Weigh the empty vial containing stir bar and cap with inert liner. Record the tare weight. • c. Weigh approximately 3.0 g of each solvent into the designated vial. • d. Weigh approximately 30.0 mg of the API into each vial. • e. Place all closed vials on a stir plate and allow mixing for at least 30 minutes at ambient conditions. • f. Visually inspect to see if the API has completely dissolved. Record the stir time and observations. • g. If the API has dissolved, repeat steps d to f until saturation solubility is achieved or up to 10% w/w. • h. Record additional API aliquots added to the mixture. Continue stirring solutions overnight at ambient temperature to confirm solubility is maintained. • i. Record the final weight of the vial, cap, stir bar, and sample to calculate the total amount of active and/or solvent added at room temperature. • j. Heat (if applicable) all the vials in which API is not soluble to 65° C. for 1 hour and check the solubility. Allow them to cool to room temperature and check for any precipitation in the vials in which API was soluble when heated. Perform microscopy as deemed necessary. • k. Confirm the pH of buffer solutions after addition and solubilization (if applicable) of the API. • l. Record final observations and take pictures as needed to document the observations.
Upon addition of Ondansetron HCl to each solvent, vials were subjected to stirring at room temperature at 400 RPM.
For the secondary solvent solubility screen, solvents which required heating as primary systems were blended at a 1:1 ratio with other solubilizers being screened.

Cc1nccn1CC1CCc2c(c3ccccc3n2C)C1=O (stereo not shown) [Ondansetron HCl]
at least 1 % w/w: Solubility (visual) (in Citrate buffer USP (pH 3.0), without heating) | Solubility (visual) (in DMSO, without heating) | Solubility (visual) (in PEG 400, without heating) | Solubility (visual) (in absolute alcohol, without heating) | Solubility (visual) (in benzyl alcohol, without heating) | Solubility (visual) (in diethylene glycol monoethyl ether, without heating) | Solubility (visual) (in propylene glycol, without heating)
≥ 10%: Solubility achieved (visual) (in DMSO) | Solubility achieved (visual) (in benzyl alcohol) | Solubility achieved (visual) (in propylene glycol)
